The text below walks through data of ChEMBL document CHEMBL1201862, “PubChem BioAssay data set” (2004).

The nature of assay [1]: C. albicans growth with fluconazole, confirmation, fluorescence, retest (AID 2467). In kind it is functional, cell-based.
Assay [2] can be described thus: NIH-3T3 fibroblast cytotoxicity, dose response, cytotoxicity control, cell-based, fluorescence, Alamar Blue, secondary assay (AID 2327).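 Note: NIH-3T3 mouse fibroblasts cultured with fluconazole at 8 µg/mL.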 In kind it is functional. (Alamar Blue is a resazurin reagent that responds to reducing activity.)
Assay [3] is described as follows: Luminescence Cell-Based Dose Retest to Confirm Inhibitors of Cancer Stem Cells. [Related pubchem assays (depositor defined):AID2717, AID2721]. Type of assay: functional. Particulars: Homo sapiens.
Assay [4] deals with T1, Corticotropin-releasing factor receptor 2/Corticotropin-releasing factor-binding protein (Homo sapiens, UniProt P24387+Q13324).
T1 sequence (Q13324 whole entry): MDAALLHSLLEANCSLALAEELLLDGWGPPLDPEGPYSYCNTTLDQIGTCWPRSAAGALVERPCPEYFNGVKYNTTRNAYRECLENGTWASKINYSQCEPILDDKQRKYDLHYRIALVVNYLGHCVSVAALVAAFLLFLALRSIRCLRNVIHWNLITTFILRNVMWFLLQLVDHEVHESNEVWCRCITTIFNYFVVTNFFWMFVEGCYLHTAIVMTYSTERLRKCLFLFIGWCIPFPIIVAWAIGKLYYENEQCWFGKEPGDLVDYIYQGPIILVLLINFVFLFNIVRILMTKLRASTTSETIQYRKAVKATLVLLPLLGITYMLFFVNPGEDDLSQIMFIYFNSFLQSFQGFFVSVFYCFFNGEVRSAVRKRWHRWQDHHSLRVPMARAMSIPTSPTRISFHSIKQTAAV
T1 sequence (P24387 whole entry): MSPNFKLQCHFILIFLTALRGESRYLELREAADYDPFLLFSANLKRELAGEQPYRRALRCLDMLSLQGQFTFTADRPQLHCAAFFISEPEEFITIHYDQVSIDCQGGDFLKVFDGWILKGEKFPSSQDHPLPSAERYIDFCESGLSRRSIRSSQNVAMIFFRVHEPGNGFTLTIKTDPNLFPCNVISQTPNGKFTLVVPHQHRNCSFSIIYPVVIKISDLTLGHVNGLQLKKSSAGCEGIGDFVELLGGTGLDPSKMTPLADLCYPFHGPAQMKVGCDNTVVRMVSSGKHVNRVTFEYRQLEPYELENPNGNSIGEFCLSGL
As to the kind of experiment: activators of CRF receptor 2 with binding protein – uHTS hits, confirmation (AID 602473). Particulars: read-out: EC50_Mean. In kind it is functional.

A further assay deals with Streptococcus. The experiment in a line: Group A Streptococcus viability loss, dose response, counter-screen for streptokinase expression inhibitor project, luminescence, BacTiterGlo (AID 1915).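 Note: potency for reduction of bacterial viability or growth.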 Type of assay: functional, organism-based.
In the next assay the target is T2, Streptokinase A (Streptococcus pyogenes serotype M1, UniProt P10520).
T2 sequence (P10520 whole entry): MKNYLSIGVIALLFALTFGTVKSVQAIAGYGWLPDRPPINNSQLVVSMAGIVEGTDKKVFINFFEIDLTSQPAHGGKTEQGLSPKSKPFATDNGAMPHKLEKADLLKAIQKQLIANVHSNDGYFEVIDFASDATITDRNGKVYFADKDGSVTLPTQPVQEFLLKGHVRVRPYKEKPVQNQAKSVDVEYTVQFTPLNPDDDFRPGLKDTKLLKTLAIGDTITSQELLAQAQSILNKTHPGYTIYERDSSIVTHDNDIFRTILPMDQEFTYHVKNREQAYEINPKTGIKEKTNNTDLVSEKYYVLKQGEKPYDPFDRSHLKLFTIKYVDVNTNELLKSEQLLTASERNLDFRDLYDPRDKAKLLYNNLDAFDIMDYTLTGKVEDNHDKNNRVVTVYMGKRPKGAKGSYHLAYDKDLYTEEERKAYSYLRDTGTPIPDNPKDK
As to the kind of experiment: S. pyogenes streptokinase expression inhibitors, potency, dose response, plasminogen activation absorbance, OD405 (AID 1914).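 Note: secreted streptokinase activity via plasminogen activation per viability signal from cell pellet.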 In kind it is functional, Streptococcus pyogenes M1 GAS.

Assay [5] relates to Streptococcus sp. 'group A'. As to the kind of experiment: growth inhibition of control SK(-) GAS strain, dose response, counter-screen for streptokinase expression inhibitor project, luminescence, kanamycin, BacTiterGlo, confirmation (AID 1900). In kind it is functional, organism-based. In general terms: A counterscreen serves to expose hits that act by an unwanted route or on another target.

A short description of assay [6]: cytotoxicity toward NIH3T3 fibroblasts, dose response, counter-screen, cell-based, ATP luminescence, mouse fibroblasts (AID 2010).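 Note: cells exposed to compound for about 90 hours before reading.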 In kind it is functional.
The nature of assay [7]: inhibitors of intracellular T. cruzi replication, confirmation, NIH3T3 host cells, beta-gal luminescence (AID 2044).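 Note: intracellular parasites grown in NIH/3T3 mouse fibroblasts as host cells; luminescent beta-galactosidase reporter signal from transgenic T. cruzi replicating inside host cells; inhibitors lower the luminescence signal.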 Type of assay: functional, cell-based.
The nature of assay [8]: Luminescence Cell-Based Dose Response HTS to Identify Activators of Luciferase Translation or Activity in H4 […] Cells. [Related pubchem assays: 1829 (Project Summary), 1814 (Primary HTS)]. Type of assay: functional.
The test system of the next assay is H4. The experiment in a line: Luminescence Cell-Based Dose Response HTS to Identify Activators of 5'UTR Stem-Loop Driven Prion Protein mRNA Translation in H4 Neuroglioblastoma Cells. [Related pubchem assays: 1829 (Project Summary), 1814 (Primary HTS)]. In kind it is functional. Conditions: Homo sapiens.
Assay [9] is described as follows: growth suppression of PTEN-null colon cells, dose response, cell-based, HCT116 PTEN knockout (AID 1047).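 Note: HCT116 colon tumor cells with PTEN knocked out; cells exposed to compound for 60 hours before readout; potency for loss of cell viability measured by luminescence.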 In kind it is functional.
Assay [10] in a line: growth suppression of beta-catenin-knockout colon cells, dose response, cell-based, HCT116, human colon tumor (AID 1045).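 Note: HCT116 colon tumor cells with beta catenin knocked out; cells exposed to compound for 60 hours.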 In kind it is functional.
In assay [11] the target is T1, Corticotropin-releasing factor receptor 2/Corticotropin-releasing factor-binding protein. As to the kind of experiment: Dose Response confirmation of uHTS hits for small molecule antagonists of the CRF-binding protein and CRF-R2 receptor complex. Type of assay: functional. Particulars: read-out: IC50_Mean.
Assay [12] can be described thus: Luminescence Cell-Based Dose Response HTS to Identify Inhibitors of 5'UTR Stem-Loop Driven Prion Protein mRNA Translation in H4 Neuroglioblastoma Cells. [Related pubchem assays: 1827 (Project Summary), 1813 (Primary HTS)]. Type of assay: functional.
The next assay concerns the target Paired box protein Pax-8 (Homo sapiens, UniProt Q06710). The experiment in a line: inhibitors of PAX8-driven TPO luciferase reporter, dose response, RMG-I cells, cherry-pick (AID 687027).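 Note: luciferase reporter driven by Pax8 target thyroperoxidase promoter measured by SteadyGlo luminescence.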 In kind it is functional, cell-based. In general terms: Reporter assays use an easily measured gene product as a stand-in for the process of interest.
A short description of assay [13]: inhibitors of firefly luciferase expression or activity, dose response, H4 neuroglioma cells, luminescence (AID 1990). In kind it is functional, cell-based.
Assay [14] in a line: inhibitors of SNCA 5'UTR-driven reporter translation, confirmation, H4 neuroglioma cells, luminescence (AID 1988). In kind it is functional, cell-based.
The nature of assay [15]: HEp-2 cell cytotoxicity, dose response, cytotoxicity control for RSV inhibitor project, HTS (AID 2410). Type of assay: functional. Conditions: human respiratory syncytial virus.

Structures are written as SMILES. The source made the active and inactive calls. Cut-off read from the data, not from the text of the source, for most assays here: actives have a measured EC50 and inactives only a lower limit.

Sequence of Paired box protein Pax-8 (Q06710 whole entry): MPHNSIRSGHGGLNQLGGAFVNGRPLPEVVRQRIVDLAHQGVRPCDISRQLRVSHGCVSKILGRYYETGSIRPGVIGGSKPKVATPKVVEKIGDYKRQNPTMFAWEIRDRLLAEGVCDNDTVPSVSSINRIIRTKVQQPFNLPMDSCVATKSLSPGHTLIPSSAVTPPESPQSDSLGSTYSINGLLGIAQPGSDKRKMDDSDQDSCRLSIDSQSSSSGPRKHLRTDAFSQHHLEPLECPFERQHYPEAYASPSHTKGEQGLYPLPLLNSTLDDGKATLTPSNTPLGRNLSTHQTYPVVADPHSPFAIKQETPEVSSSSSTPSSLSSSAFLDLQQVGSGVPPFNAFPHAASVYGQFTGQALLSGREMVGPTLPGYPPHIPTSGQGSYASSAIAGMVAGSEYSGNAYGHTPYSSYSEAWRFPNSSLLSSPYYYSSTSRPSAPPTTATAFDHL

With `S=C(NCCN1CCOCC1)NC1CCCC1`, the EC50 was > 38 µM (not active) in [1] and > 150 µM (inactive) in assay [2].

The AC50 is the concentration giving half of the maximal activity seen. As to `O=C(CC1Nc2ccccc2NC1=O)Nc1ccccc1` (stereo unspecified), the AC50 in assay [3] was 0.568 µM (active).

As for `Cc1c(O)cc2c(c1O)C(=O)CC(c1ccccc1)O2` (stereo unspecified) [STROBOPININ], the EC50 in assay [4] is 2.69 µM (active). Besides, the AC50 in [3] was 4.97 µM (active).

As to `CCSc1cc(N2CCCC2)nc(-c2ccccc2)n1`, the EC50 with Streptococcus was > 150 µM (not active); at Streptokinase A, 66.1 µM (active); in [5], > 150 µM (not active).

Regarding `CCC/C(=C1/c2ccccc2C(=O)N1c1ccccc1)c1ccc2[nH]ccc2c1`, the half-maximal activity concentration (AC50) in [3] is 1.04 µM (active).

In the case of `Cc1cccc(Nc2nnc(-c3ccc(N4CCOCC4)c([N+](=O)[O-])c3)c3ccccc23)c1`, the EC50 in the assay with Streptococcus is 125 µM (active); at Streptokinase A, > 150 µM (not active); in assay [5], 3.77 µM (active).

For the molecule `CCc1c(C)c(C#N)c2nc3ccccc3n2c1S`, the EC50 is 21.5 µM (active) in the assay with Streptococcus, > 150 µM (not active) on Streptokinase A and 14.6 µM (active) in assay [5].

In the case of `COC(=O)c1ccc(NS(=O)(=O)c2cc(-c3cc(C)no3)ccc2OC)cc1`, the EC50 in assay [1] was > 38 µM (not active); in [2] it was 127 µM (active).

Take `CCCc1nc2ccccc2c(C(=O)OCC(=O)N2CCc3ccccc32)c1CC`: the AC50 in assay [3] is 3.04 µM (active). The EC50 is > 60 µM (not active) in assay [6] and 0.496 µM (active) in assay [7].

Turning to `COc1cc2c(cc1NC(=O)c1ccccc1F)CCCC2`, the EC50 was 89.6 µM (active) in [8] and > 120 µM (not active) with H4.

For the molecule `O=C(CSc1ccc2ccccc2n1)N/N=C/c1ccccc1O`, the EC50 with Streptococcus is 2.9 µM (active); at Streptokinase A, > 150 µM (not active); in assay [5], 1.1 µM (active).

Turning to `Cc1cc(C(=O)COC(=O)C2=COCCO2)c(C)n1-c1cccc(F)c1`, in the assay with H4, the EC50 was 0.887 µM (active).

As to `Cc1ccc(S(=O)(=O)N(CC(=O)Nc2ccc(Cl)c([N+](=O)[O-])c2)C2CCCCC2)cc1`, the EC50 in [9] is 16.2 µM (active); in [6] it was > 60 µM (not active); in [7], 3.08 µM (active); in assay [10] it was 19 µM (active).

As for `COc1cc(OC)cc(-c2cc3nc4c(c(N5CCN(c6ncccn6)CC5)n3n2)CCCC4)c1`, the EC50 in the assay with Streptococcus is 106 µM (active); at Streptokinase A, > 150 µM (not active); in assay [5], 13.2 µM (active).

In the case of `COC(=O)[C@@H]1CCCN1Cc1nc(Cc2ccccc2F)no1`, the EC50 in assay [1] is > 38 µM (not active); in [2], > 160 µM (inactive).

As to `Cc1ccc(Cn2ccc(NC(=O)c3cc(C)on3)n2)cc1`, the EC50 in [1] is > 38 µM (not active); in [2], > 150 µM (inactive).

For `Cc1nn(-c2ccccc2)c(Cl)c1C1C(C#N)=C(N)OC2=C1C(=O)CCC2` (stereo unspecified), the EC50 in the assay on Streptococcus was 15.9 µM (active); at Streptokinase A, > 150 µM (not active); in assay [5], 1.77 µM (active).

As for `Cc1nn(-c2nc3ccccc3s2)c(N)c1Sc1ccc(F)cc1`, the figures for the EC50 in [9] and in assay [10] were 15.5 µM (active) and 19.6 µM (active), respectively.

As for `CCOC(=O)c1sc(Nc2nc3ccc(OC)cc3s2)cc1C`, the EC50 in the assay on Streptococcus was 8.88 µM (active); at Streptokinase A, > 150 µM (not active); in [5] it was 9.29 µM (active).

Regarding `Oc1c2cnnc-2nc(SCc2c(F)cccc2F)n1-c1ccc(Cl)cc1`, the EC50 in the assay with Streptococcus was > 150 µM (not active); at Streptokinase A, > 150 µM (not active); in [5], 14.1 µM (active).

Turning to `O=C(/C=C/c1ccc(N2CCCCC2)c([N+](=O)[O-])c1)c1ccc(S(=O)(=O)N2CCCC2)cc1`, the values for the EC50 in [9] and in assay [10] were 4.4 µM (active) and 3.42 µM (active), respectively.

As for `COc1ccc(NC(=O)c2cc(-c3ccccc3OC)on2)cc1`, the EC50 in assay [4] was > 53 µM (inactive). The concentration at half-maximal activity (AC50) in assay [3] was 0.248 µM (active). In [11], the IC50 is > 47.1 µM (inactive).

Regarding `COc1ccc(O)c(/C=N/NC(=O)c2ccc(N3CCCC3=O)cc2)c1`, the EC50 is 16.3 µM (active) in assay [12], 14.8 µM (active) in assay [13], 12.5 µM (active) in assay [14] and > 160 µM (inactive) in assay [2]. Moreover, on Paired box protein Pax-8, the AC50 was < 0.26 µM (active).

The term CC50 denotes the concentration that lowers cell viability or growth by half. Turning to `Oc1nc(NN=C(S)NC2CCCCC2)nc2c1C1(CCCC1)Cc1ccccc1-2`, the results for the EC50 (in the assay with Streptococcus; at Streptokinase A; in [5]) were 17.2 µM (active), 16.1 µM (active) and 5.2 µM (active), respectively. Further, in [15], the CC50 was 25.7 µM (active).

Take `Fc1ccccc1COc1ccc(-c2nnn(Cc3ccccc3F)n2)cc1`: the AC50 in assay [3] is 5.63 µM (active).

`COCCn1c(SCC(=O)Nc2ccc(F)cc2)nc2c3ccccc3nc-2c1O`: the EC50 (with Streptococcus; on Streptokinase A; in assay [5]) was > 150 µM (not active) in each case.
